{"source": "patent EP3355943B1", "about": "“METHODS AND SYSTEMS FOR TREATING MEDICAL DEVICES AND FLUIDS” (Ethicon, Inc., priority 2015, dated 2017)", "assay": "Effect of storage (dwell time) on efficacy of pre-mixed CaSt suspensions, sonicated or vortexed", "type": "biochemical", "procedure": "Efficacy of pre-mixed CaSt suspensions (sonicated and vortexed) was tested, comparing efficacy of immediately prepared suspensions with suspensions having shelf life or dwell time of 90 min, 5 days, and 1 month prior to contact with endotoxin containing solutions.\n10 mL SRW was then introduced to the sonicated CaSt mixture. It was then vortexed for 5 seconds to fully incorporate the sonicated CaSt. The mixture was then tested after 15 minutes of interaction to measure the percent decrease of endotoxin.\n10 mL SRW was then introduced to the vortexed CaSt mixture. It was then vortexed for 5 seconds to fully incorporate the sonicated CaSt. The mixture was then tested after 15 minutes of interaction to measure the percent decrease of endotoxin.\nThese mixtures were then tested on the Charles River MCS at a dilution of 1:2000 after 15 minutes of interaction.\nTesting of suspensions having shelf life or dwell time of 90 min, 5 days, and 1 month prior to contact with endotoxin containing solutions.\nTest samples were prepared as described above, sonicated and vortexed, but were subjected to shelf life or dwell time of 90 min, 5 days, and 1 month prior to contact with endotoxin containing solution (SRW). After dwell time exposure, similarly to the immediate mixing test above, 10 mL SRW was then introduced to the sonicated or vortexed CaSt mixture. It was then vortexed for 5 seconds to fully incorporate the sonicated CaSt. The mixture was then tested after 15 minutes of interaction to measure the percent decrease of endotoxin. These mixtures were then tested on the Charles River MCS at a dilution of 1:2000 after 15 minutes of interaction.\n*The 1 month shelf life sample was only tested at 0.04g CaSt and measured the percent removal after 15 minutes of interaction as well as 30 minutes after interaction.", "data": [{"molecule": "CCCCCCCCCCCCCCCCCC(=O)O", "note": "[Calcium Stearate]", "values": [{"measurement": "Percent Endotoxin Removed", "setting": "0.02 g CaSt, Vortexed, 5 Day dwell time, listed as Aged Vortexed CaSt #3", "result": 60, "unit": "%"}, {"measurement": "Percent Endotoxin Removed", "setting": "0.02 g CaSt, Vortexed, 5 Day dwell time, listed as Aged Vortexed CaSt #4", "result": 68, "unit": "%"}, {"measurement": "Average Percent Change", "setting": "0.02 g CaSt, Vortexed, 90 min dwell time", "result": 43, "unit": "%"}, {"measurement": "EU After", "setting": "0.02 g CaSt, Vortexed, 90 min dwell time, 15 minutes, EU Before 36,100, listed as Aged Vortexed CaSt #1", "result": "22,400 EU"}, {"measurement": "EU After", "setting": "0.02 g CaSt, Vortexed, 90 min dwell time, 15 minutes, EU Before 36,100, listed as Aged Vortexed CaSt #2", "result": 19280, "unit": "EU"}, {"measurement": "Percent Endotoxin Removed", "setting": "0.02 g CaSt, Vortexed, 90 min dwell time, listed as Aged Vortexed CaSt #1", "result": 38, "unit": "%"}, {"measurement": "Percent Endotoxin Removed", "setting": "0.02 g CaSt, Vortexed, 90 min dwell time, listed as Aged Vortexed CaSt #2", "result": 47, "unit": "%"}, {"measurement": "Average Percent Change", "setting": "0.02 g CaSt, Vortexed, Immediate Mixing", "result": 32, "unit": "%"}, {"measurement": "EU After", "setting": "0.02 g CaSt, Vortexed, Immediate Mixing, 15 minutes, EU Before 36,100, listed as Aged Vortexed CaSt #1", "result": "29,200 EU"}, {"measurement": "EU After", "setting": "0.02 g CaSt, Vortexed, Immediate Mixing, 15 minutes, EU Before 36,100, listed as Aged Vortexed CaSt #2", "result": "20,480 EU"}, {"measurement": "Percent Endotoxin Removed", "setting": "0.02 g CaSt, Vortexed, Immediate Mixing, listed as Aged Vortexed CaSt #1", "result": 20, "unit": "%"}, {"measurement": "Percent Endotoxin Removed", "setting": "0.02 g CaSt, Vortexed, Immediate Mixing, listed as Aged Vortexed CaSt #2", "result": 43, "unit": "%"}, {"measurement": "EU After", "setting": "0.04 g CaSt, Sonicated, Immediate Mixing with 10 mL SRW, 15 minutes, EU Before 36,100, listed as Sonicated CaSt #1", "result": "5,320 EU"}, {"measurement": "EU After", "setting": "0.04 g CaSt, Sonicated, Immediate Mixing with 10 mL SRW, 15 minutes, EU Before 36,100, listed as Sonicated CaSt #2", "result": "5,800 EU"}, {"measurement": "Average Percent Change", "setting": "0.04 g CaSt, Sonicated, Immediate Mixing, 15 minutes", "result": 85, "unit": "%"}, {"measurement": "Percent Endotoxin Removed", "setting": "0.04 g CaSt, Sonicated, Immediate Mixing, 15 minutes, listed as Sonicated CaSt #1", "result": 85, "unit": "%"}, {"measurement": "Percent Endotoxin Removed", "setting": "0.04 g CaSt, Sonicated, Immediate Mixing, 15 minutes, listed as Sonicated CaSt #2", "result": 84, "unit": "%"}, {"measurement": "Average Percent Change", "setting": "0.04 g CaSt, Sonicated, Mixing after 1 Month dwell time", "result": 50, "unit": "%"}, {"measurement": "EU After", "setting": "0.04 g CaSt, Sonicated, Mixing after 1 Month dwell time, 15 minutes, EU Before 14650, listed as Aged Sonicated CaSt #1", "result": 7440, "unit": "EU"}, {"measurement": "EU After", "setting": "0.04 g CaSt, Sonicated, Mixing after 1 Month dwell time, 15 minutes, EU Before 14650, listed as Aged Sonicated CaSt #2", "result": 7240, "unit": "EU"}, {"measurement": "Percent Endotoxin Removed", "setting": "0.04 g CaSt, Sonicated, Mixing after 1 Month dwell time, listed as Aged Sonicated CaSt #1", "result": 49.2, "unit": "%"}, {"measurement": "Percent Endotoxin Removed", "setting": "0.04 g CaSt, Sonicated, Mixing after 1 Month dwell time, listed as Aged Sonicated CaSt #2", "result": 50.6, "unit": "%"}, {"measurement": "Average Percent Change", "setting": "0.04 g CaSt, Sonicated, Mixing after 5 Days dwell time", "result": 85, "unit": "%"}, {"measurement": "EU After", "setting": "0.04 g CaSt, Sonicated, Mixing after 5 Days dwell time, 15 minutes, EU Before 37,800, listed as Aged Sonicated CaSt #3", "result": "5,040 EU"}, {"measurement": "EU After", "setting": "0.04 g CaSt, Sonicated, Mixing after 5 Days dwell time, 15 minutes, EU Before 37,800, listed as Aged Sonicated CaSt #4", "result": "6,560 EU"}, {"measurement": "Percent Endotoxin Removed", "setting": "0.04 g CaSt, Sonicated, Mixing after 5 Days dwell time, listed as Aged Sonicated CaSt #3", "result": 87, "unit": "%"}, {"measurement": "Percent Endotoxin Removed", "setting": "0.04 g CaSt, Sonicated, Mixing after 5 Days dwell time, listed as Aged Sonicated CaSt #4", "result": 83, "unit": "%"}, {"measurement": "Average Percent Change", "setting": "0.04 g CaSt, Sonicated, Mixing after 90 min dwell time", "result": 81, "unit": "%"}, {"measurement": "EU After", "setting": "0.04 g CaSt, Sonicated, Mixing after 90 min dwell time, 15 minutes, EU Before 36,100, listed as Aged Sonicated CaSt #1", "result": 6168, "unit": "EU"}, {"measurement": "EU After", "setting": "0.04 g CaSt, Sonicated, Mixing after 90 min dwell time, 15 minutes, EU Before 36,100, listed as Aged Sonicated CaSt #2", "result": "8,000 EU"}, {"measurement": "Percent Endotoxin Removed", "setting": "0.04 g CaSt, Sonicated, Mixing after 90 min dwell time, listed as Aged Sonicated CaSt #1", "result": 83, "unit": "%"}, {"measurement": "Percent Endotoxin Removed", "setting": "0.04 g CaSt, Sonicated, Mixing after 90 min dwell time, listed as Aged Sonicated CaSt #2", "result": 78, "unit": "%"}, {"measurement": "Average Percent Change", "setting": "0.04 g CaSt, Vortexed, Immediate Mixing", "result": 44, "unit": "%"}, {"measurement": "EU After", "setting": "0.04 g CaSt, Vortexed, Immediate Mixing, 15 minutes, EU Before 36,100, listed as Aged Vortexed CaSt #1", "result": "19,840 EU"}, {"measurement": "EU After", "setting": "0.04 g CaSt, Vortexed, Immediate Mixing, 15 minutes, EU Before 36,100, listed as Aged Vortexed CaSt #2", "result": 20480, "unit": "EU"}, {"measurement": "Percent Endotoxin Removed", "setting": "0.04 g CaSt, Vortexed, Immediate Mixing, listed as Aged Vortexed CaSt #1", "result": 45, "unit": "%"}, {"measurement": "Percent Endotoxin Removed", "setting": "0.04 g CaSt, Vortexed, Immediate Mixing, listed as Aged Vortexed CaSt #2", "result": 43, "unit": "%"}, {"measurement": "Average Percent Change", "setting": "0.04 g CaSt, Vortexed, Mixing after 5 Days dwell time", "result": 75, "unit": "%"}, {"measurement": "EU After", "setting": "0.04 g CaSt, Vortexed, Mixing after 5 Days dwell time, 15 minutes, EU Before 37,800, listed as Aged Vortexed CaSt #3", "result": "9,080 EU"}, {"measurement": "EU After", "setting": "0.04 g CaSt, Vortexed, Mixing after 5 Days dwell time, 15 minutes, EU Before 37,800, listed as Aged Vortexed CaSt #4", "result": "9,760 EU"}, {"measurement": "Percent Endotoxin Removed", "setting": "0.04 g CaSt, Vortexed, Mixing after 5 Days dwell time, listed as Aged Vortexed CaSt #3", "result": 76, "unit": "%"}, {"measurement": "Percent Endotoxin Removed", "setting": "0.04 g CaSt, Vortexed, Mixing after 5 Days dwell time, listed as Aged Vortexed CaSt #4", "result": 74, "unit": "%"}, {"measurement": "Average Percent Change", "setting": "0.04 g CaSt, Vortexed, Mixing after 90 min dwell time", "result": 54, "unit": "%"}, {"measurement": "EU After", "setting": "0.04 g CaSt, Vortexed, Mixing after 90 min dwell time, 15 minutes, EU Before 36,100, listed as Aged Vortexed CaSt #1", "result": "17,120 EU"}, {"measurement": "EU After", "setting": "0.04 g CaSt, Vortexed, Mixing after 90 min dwell time, 15 minutes, EU Before 36,100, listed as Aged Vortexed CaSt #2", "result": "16,460 EU"}, {"measurement": "Percent Endotoxin Removed", "setting": "0.04 g CaSt, Vortexed, Mixing after 90 min dwell time, listed as Aged Vortexed CaSt #1", "result": 53, "unit": "%"}, {"measurement": "Percent Endotoxin Removed", "setting": "0.04 g CaSt, Vortexed, Mixing after 90 min dwell time, listed as Aged Vortexed CaSt #2", "result": 54, "unit": "%"}]}]}
